Data reported in ChEMBL document CHEMBL5505980, “Pyrazolamide derivatives inhibit α-Synuclein aggregation, disaggregate preformed fibers, and reduce inclusion formation in neuron cells” (Eur J Med Chem, 2024).

What was measured:
[1] = Apparent permeability across basolateral side to apical in MDCKII-MDR1 cells at 10 uM by LC-MS/MS analysis; format: ADME, cell-based, Canis lupus familiaris; details: dog, MDCK-MDR1
[2] = Cytotoxicity against human H4 cells assessed as cell viability at 30 uM incubated for 24 hrs by CCK-8 assay relative to control; format: toxicity, cell-based; details: read-out: Activity
[3] = Apparent permeability across apical to basolateral side in MDCKII-MDR1 cells at 10 uM by LC-MS/MS analysis; format: ADME, cell-based, Canis lupus familiaris; details: dog, MDCK-MDR1
[4] = system: H4; test: Cytotoxicity against human H4 cells assessed as cell viability at 1 to 1000 uM incubated for 24 hrs by CCK-8 assay; format: toxicity, cell-based; details: h4, 24 h, dose 1-1000 µM
[5] = system: H4; test: Cytotoxicity against human H4 cells assessed as cell viability at 300 uM incubated for 24 hrs by CCK-8 assay relative to control; format: toxicity, cell-based; details: h4, 24 h
[6] = target: Alpha-synuclein (Homo sapiens, UniProt P37840); test: Inhibition of alpha-synuclein (unknown origin) aggregation inhibition ratio by measuring relative fluorescence intensity measured after 3 days by ThT F1 based assay relative to control

Compound	Papp B→A at 10 µM [1] [×10⁻⁶ cm/s]	Papp A→B at 10 µM [3] [×10⁻⁶ cm/s]	viability at 24 h, 30 µM [2] [%]	Activity [4]	Activity [5]	IC50 [6] [µM]
Cc1ccc(-c2cc(C(=O)Nc3cc(O)ccc3O)[nH]n2)cc1	6.65	2.26	74	Non-Toxic		
O=C(Nc1ccc(O)c(O)c1)c1cc(-c2ccc(C(F)(F)F)cc2)n[nH]1	1.86	4.2	95	Non-Toxic		
O=C(O[C@@H]1Cc2c(O)cc(O)cc2O[C@@H]1c1cc(O)c(O)c(O)c1)c1cc(O)c(O)c(O)c1 [EPIGALOCATECHIN GALLATE]				Non-Toxic		2.58

Continued, in another order:

Papp B→A at 10 µM [1] [×10⁻⁶ cm/s]	Papp A→B at 10 µM [3] [×10⁻⁶ cm/s]	Compound	viability at 24 h, 30 µM [2] [%]	Activity [4]	Activity [5]	IC50 [6] [µM]
12	29.6	O=C(Nc1cc(O)ccc1O)c1cc(-c2ccc(Br)cc2)n[nH]1	95	Non-Toxic	Non-Toxic	
19.3	49.7	O=C(Nc1cc(O)ccc1O)c1cc(-c2ccc(C(F)(F)F)cc2)n[nH]1	95	Non-Toxic		
